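1) Cells in 96-well plates. 2) Compound, 48 h, 5 concentrations. 3) Linear interpolation between surrounding doses. 4) Unreached endpoint = highest concentration. Here, GI50 denotes the concentration required for 50% inhibition of growth. Definition used: TGI = concentration required for complete inhibition of growth.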
Experiments:
Assay in all cases: inhibition of tumour cell growth, NCI panel, 48 h
[1] = system: SF-539 CNS
[2] = system: SR leukemia
[3] = system: CAKI-1 renal
[4] = system: SW-620 colon
[5] = system: EKVX NSCLC
[6] = system: HL-60(TB) leukemia
[7] = system: A549 NSCLC
[8] = system: OVCAR-5 ovarian
[9] = system: RPMI-8226 leukemia
[10] = system: UO-31 renal
[11] = system: OVCAR-4 ovarian
[12] = system: MOLT-4 leukemia
[13] = system: OVCAR-3 ovarian
[14] = system: NCI-H23 lung
[15] = system: SK-OV-3 ovarian
[16] = system: T-47D breast
[17] = system: HT29 colon
[18] = system: 786-0 renal
[19] = system: U251 CNS
[20] = system: IGROV1 ovarian
[21] = system: COLO 205 colon
[22] = system: SK-MEL-5 melanoma
[23] = system: SK-MEL-2 melanoma
[24] = system: MCF7 breast
[25] = system: SF-268 CNS
[26] = system: KM12 colon
[27] = system: OVCAR-8 ovarian
[28] = system: TK-10 renal
[29] = system: SNB-75 CNS
[30] = system: HCC-2998 colon
[31] = system: M14 melanoma
[32] = system: ACHN renal
[33] = system: LOX IMVI melanoma
[34] = system: NCI-H522 lung
[35] = system: UACC-62 melanoma
[36] = system: HOP-62 NSCLC
[37] = system: NCI/ADR-RES ovarian
[38] = system: SN12C renal
[39] = system: A498 renal
[40] = system: CCRF-CEM leukemia
[41] = system: HOP-92 NSCLC
[42] = system: SF-295 CNS
[43] = system: NCI-H460 lung
[44] = system: NCI-H226 lung
[45] = system: MDA-MB-435
[46] = system: BT-549 breast
[47] = system: HS 578T breast
[48] = system: K-562 leukemia
[49] = system: HCT-15 colon
[50] = system: PC-3 prostate
[51] = system: SNB-19 CNS
[52] = system: UACC-257 melanoma
[53] = system: HCT-116 colon
[54] = system: SK-MEL-28 melanoma
[55] = system: RXF 393 renal
[56] = system: MALME-3M melanoma
[57] = system: MDA-MB-231 breast

Structure (SMILES): O=P(O)(O)OCC1OC(n2cnc3c(NCc4ccccc4)ncnc32)C(O)C1O (centres undefined)
- GI50 [1]: 1.55 µM
- TGI [1]: 4.73 µM
- GI50 [2]: 3.34 µM
- TGI [2]: > 64.2 µM
- GI50 [3]: 1.4 µM
- TGI [3]: 14.3 µM
- GI50 [4]: 1.33 µM
- TGI [4]: > 73.9 µM
- GI50 [5]: 2.97 µM
- TGI [5]: 80.1 µM
- GI50 [6]: 0.346 µM
- TGI [6]: > 100 µM
- GI50 [7]: 7.21 µM
- TGI [7]: > 88.4 µM
- GI50 [8]: 3.11 µM
- TGI [8]: > 100 µM
- GI50 [9]: 3.97 µM
- TGI [9]: > 52.1 µM
- GI50 [10]: 3.38 µM
- TGI [10]: 32.4 µM
- GI50 [11]: 0.642 µM
- TGI [11]: 33.1 µM
- GI50 [12]: 0.673 µM
- TGI [12]: > 100 µM
- GI50 [13]: 0.691 µM
- TGI [13]: 2.16 µM
- GI50 [14]: 1.97 µM
- TGI [14]: 31.4 µM
- GI50 [15]: 2.73 µM
- TGI [15]: 11.1 µM
- GI50 [16]: 1.37 µM
- TGI [16]: 10.3 µM
- GI50 [17]: 2.27 µM
- TGI [17]: > 36 µM
- GI50 [18]: 2.83 µM
- TGI [18]: > 67.6 µM
- GI50 [19]: 5.21 µM
- TGI [19]: > 100 µM
- GI50 [20]: 3.52 µM
- TGI [20]: 23 µM
- GI50 [21]: 2.37 µM
- TGI [21]: 8.53 µM
- GI50 [22]: 17 µM
- TGI [22]: > 100 µM
- GI50 [23]: > 23.8 µM
- TGI [23]: > 84.4 µM
- GI50 [24]: 1.31 µM
- TGI [24]: 19.3 µM
- GI50 [25]: 2.03 µM
- TGI [25]: > 100 µM
- GI50 [26]: 12.7 µM
- TGI [26]: > 100 µM
- GI50 [27]: 0.587 µM
- TGI [27]: 6.92 µM
- GI50 [28]: 2.15 µM
- TGI [28]: 30.2 µM
- GI50 [29]: 0.987 µM
- TGI [29]: > 44.1 µM
- GI50 [30]: 2.01 µM
- TGI [30]: 11.8 µM
- GI50 [31]: 2.68 µM
- TGI [31]: > 100 µM
- GI50 [32]: 1.4 µM
- TGI [32]: > 69.1 µM
- GI50 [33]: 0.334 µM
- TGI [33]: 1.47 µM
- GI50 [34]: 2.16 µM
- TGI [34]: 11.2 µM
- GI50 [35]: 5.02 µM
- TGI [35]: > 100 µM
- GI50 [36]: 1.74 µM
- TGI [36]: 27.9 µM
- GI50 [37]: 1.19 µM
- TGI [37]: 30.7 µM
- GI50 [38]: 0.509 µM
- TGI [38]: > 100 µM
- GI50 [39]: 2.05 µM
- TGI [39]: 7.44 µM
- GI50 [40]: 3.76 µM
- TGI [40]: > 100 µM
- GI50 [41]: 2.14 µM
- TGI [41]: > 22.5 µM
- GI50 [42]: 3.09 µM
- TGI [42]: 21.8 µM
- GI50 [43]: 10.6 µM
- TGI [43]: > 59.3 µM
- GI50 [44]: 2.26 µM
- TGI [44]: 6.48 µM
- GI50 [45]: 3.23 µM
- TGI [45]: > 100 µM
- GI50 [46]: 0.473 µM
- TGI [46]: 2.49 µM
- GI50 [47]: 1.02 µM
- TGI [47]: 6.1 µM
- GI50 [48]: 2.52 µM
- TGI [48]: > 100 µM
- GI50 [49]: 1.19 µM
- TGI [49]: 16 µM
- GI50 [50]: 1.2 µM
- TGI [50]: > 36.2 µM
- GI50 [51]: 4.18 µM
- TGI [51]: > 100 µM
- GI50 [52]: > 75.2 µM
- TGI [52]: > 100 µM
- GI50 [53]: 1.66 µM
- TGI [53]: > 32.1 µM
- GI50 [54]: 21.2 µM
- TGI [54]: > 100 µM
- GI50 [55]: 1.46 µM
- TGI [55]: 13.8 µM
- GI50 [56]: 6.64 µM
- TGI [56]: > 100 µM
- GI50 [57]: 0.35 µM
- TGI [57]: 1.35 µM
